# From US20200155434A1, “SKIN CLEANSING COMPOSITION” (KAO CORPORATION, priority 2017, published 2020)
# Assays:
# [1] = cited from earlier work
# [2] = at 25° C.; cited from earlier work
# [3] = Detergency against keratotic plug after washing with water; parameters: species or system human; conditions: sample substituted with water; Table 1 samples
# Method: After one minute from the contact of the keratotic plugs with the sample, Kimwipes (registered trademark) was brought into contact with an edge of the cover glass to remove the sample under the cover glass. Then, 0.05 mL of water was gradually dropwise added to an edge of the cover glass. The sample dropwise-added with water was recorded with the digital microscope, and the collapse state of the keratotic plugs was evaluated after one minute from the contact of the keratotic plugs with water according to the criteria for evaluating collapsibility of the keratotic plugs. The results of the evaluation are shown in the column “Keratotic plug detergency (during washing with water)” in Table. The measurements were performed at 25° C.
# [4] = Detergency against keratotic plug during cleansing (penetration and collapse under digital microscope); parameters: species or system human; conditions: Table 1 samples; for Penetration of the sample into keratotic plugs (in words): contact with sample for 1 minute; for Collapse of keratotic plugs in contact with the sample (in words): assumption of cleansing
# Method: Keratotic plugs in the nasal region were removed with “Biore Nose Pack (manufactured by Kao Corporation)”, the resulting keratotic plugs on the pack were gently taken out with tweezers.
# The resulting keratotic plugs were placed on a slide glass and were covered with a cover glass, and 0.05 mL of a sample was dropwise added to an edge of the cover glass. Consequently, the sample entered into the gap between the slide glass and the cover glass by capillary phenomenon and was brought into contact with the keratotic plugs. The contact of the keratotic plugs and the sample was recorded with a digital microscope (VHX-5000, manufactured by Keyence Corporation, magnification: 150×), and the penetration of the sample into the keratotic plugs and the collapse state of the keratotic plugs were evaluated after one minute from the contact of the keratotic plugs with the sample. The results of each evaluation are shown in the columns “Keratotic plug detergency (penetration)” and “Keratotic plug detergency (during cleansing)” in Tables. The measurements were performed at 25° C.
# The penetration was relatively evaluated by criteria with 11 ratings starting from the rating 1 “the sample hardly penetrated into the keratotic plug” to the rating 11 “the sample penetrated to the center of the keratotic plug”. The collapsibility by the detergency against keratotic plug was relatively evaluated by criteria with 11 ratings starting from the rating 1 “almost no change is observed in the external appearance of the keratotic plug” to the rating 11 “peeling or separation is observed in the area from the surface layer to the central portion of the keratotic plug (the initial appearance of the keratotic plug is not retained)”.
# [5] = test system: insoluble protein (seine protein); assay: Effect of suppressing protein aggregation; assay type: physicochemical; conditions: Table 1 sample
# Method: Thirty milliliters of a sample and 0.06 g of an insoluble protein (seine protein) were placed in a 35-mL standard glass bottle, and the concentration of the insoluble protein was adjusted to 0.2 mass % (test sample). Separately, a standard sample was prepared by using water instead of the sample and adjusting the concentration of the insoluble protein to 0.2 mass %. Subsequently, the standard glass bottles were sufficiently shaken and stirred up and down (shake width: 15 cm, 20 times at a rate of 5 times for 3 seconds) in a thermostatic chamber of 25° C. and were left to stand for 3 minutes. The precipitation state of the insoluble protein was then visually verified, and the ratio of the amount of the precipitated standard sample to the amount of the precipitated test sample (the height of the precipitate in each standard glass bottle was measured as the precipitation amount), (precipitation amount of standard sample)/(precipitation amount of test sample), was calculated. A higher ratio indicates a higher effect of suppressing protein aggregation.
Compound,Solubility in water (in words) [1],pKa [2],Collapse of keratotic plugs during washing with water (in words) [3],Penetration of the sample into keratotic plugs (in words) [4],Collapse of keratotic plugs in contact with the sample (in words) [4],Action on proteins (in words) [5]
"CC(C)(N)CO [AMP, 2-amino-2-methyl-1-propanol]",readily dissolved in water,9.72,,,,
"CC(N)(CO)CO [AMPD, 2-amino-2-methyl-1,3-propanediol]",,8.76,,,,
"NC(CO)(CO)CO [Tris, 2-amino-2-hydroxymethyl-1,3-propanediol]",readily dissolved in water,8.03,further accelerating the collapse of keratotic plugs,penetrated into keratotic plugs,,
O=P([O-])([O-])O.[Na+].[Na+] [disodium hydrogen phosphate],,,collapse of keratotic plugs did not progress,hardly penetrated into keratotic plugs,collapse of the keratotic plugs did not progress,
O=C([O-])O.[Na+] [sodium hydrogen carbonate],,,collapse of keratotic plugs did not progress,hardly penetrated into keratotic plugs,collapse of the keratotic plugs did not progress,
O=P([O-])([O-])[O-].[Na+].[Na+].[Na+] [trisodium phosphate],,,collapse of keratotic plugs did not progress,hardly penetrated into keratotic plugs,collapse of the keratotic plugs did not progress,
sodium polyoxyethylene (2) lauryl ether sulfate [POE (2) sodium lauryl sulfate],,,,hardly penetrated into the keratotic plugs,collapse of the keratotic plugs did not progress,dissolve the proteins
